# Test results taken from patent publication US20050209157A1, “Short bioactive peptides and methods for their use” (priority 2001, published 2005).
# No end group written: not given here.
# Columns and labels:
# H1299 = assay: Anti-cancer assay, MTT, LD50; assay type: cell-based; conditions: 24 hours with peptide, lung large cell carcinoma
# From the text: (§1) Numbers are LD50 values (μg/mL).
# HeLaS3 = assay: Anti-cancer assay, MTT, LD50; assay type: cell-based; conditions: 24 hours with peptide, cervical carcinoma
# From the text: as §1
# PC3 = assay: Anti-cancer assay, MTT, LD50; assay type: cell-based; conditions: 24 hours with peptide, prostate adenocarcinoma
# From the text: as §1
# in vitro [1] = assay type: cell-based, human; conditions: human, human red blood cells, pH 7, hemolytic assay, concentration at 50% hemolysis, 1 hour at 37° C.; read-out: LD50
# Protocol: This hemolytic assay is based upon that presented in Journal of Peptide Research 53: 82-90 (1999). […] All procedures were performed according to safety protocols pertaining to the handling and disposal of human body fluids.
# Red blood cells (RBCs) were washed three times with PBS (35 mM phosphate buffer 0.15 M NaCl, pH 7.0). RBCs suspended in PBS (0.4% (v/v); about 10 ml per 15 peptides) were prepared. Suspensions (100 μl) were aliquoted to each sample and control tube. Serially diluted peptide solutions (100 μl) were pipetted into the sample tubes. Negative control tubes contained 100 μl PBS; positive control tubes contained 100 μl 1% Triton-X100 detergent. All tubes were incubated for 1 hour at 37° C. The tubes were removed from the incubator and centrifuged at 1000 g for 5 minutes. Supernatant (100 μl) was pipetted to a 96-well polyvinyl chloride plate. The absorbance at 414 nm (A414) was measured, and used to calculate the percent hemolysis according to the following formula. [formula]
# in vitro [2] = conditions: human, WI38 normal lung fibroblast cells, 24 hours with peptide
# [3] = system: Pseudomonas aeruginosa ATCC 9027; assay: Antimicrobial assay I, MIC by OD measurement; assay type: cell-based; conditions: 37° C. for 24 hours, absorbance 620 nm
# From the text: (§2) The data for the following antimicrobial assay of the peptides have been obtained by making OD measurements in in vitro cell culture experiments with and without added peptide. The protocol used is as follows.
# (§3) Cell lines included Staphylococcus aureus ATCC 6538 or 25923, Pseudomonas aeruginosa ATCC 9027 or 27853. Medium used were Antibiotic Medium 3 (Difco), Antibiotic Medium 2 (Difco), and 0.85% saline. Controls used were physiological saline, and gentamycin at 50, 25, 10, 5, 1, and 0.1 ppm.
# (§4) Absorbance was read at 620 nm after shaking to resuspend cells.
# (§5) Staph6538 is Staphylococcus aureus ATCC accession number 6538; paerug9027 is Pseudomonas aeruginosa ATCC accession number 9027, yeast is Saccharomyces cerevisiae.
# [4] = system: Staphylococcus aureus ATCC 6538; assay: Antimicrobial assay I, MIC by OD measurement; assay type: cell-based; conditions: 37° C. for 24 hours, absorbance 620 nm
# From the text: as §2, §3, §4, §5
# [5] = system: yeast (Saccharomyces cerevisiae); assay: Antimicrobial assay I, yeast assay in RPMI 1640; assay type: cell-based; conditions: RPMI 1640 media
# Protocol: as §2, §4
# The yeast assay was performed in RPMI 1640 media (pH 7.0 at 25° C.).
# as §5
# BMKC = assay: Anti-cancer assay, MTT, LD50; assay type: cell-based; conditions: BMKC cloned melanoma line, 24 hours with peptide
# From the text: as §1
# MCF7 = assay: Anti-cancer assay, MTT, LD50; assay type: cell-based; conditions: MCF7 breast adenocarcinoma line, MTT, 24 hours with peptide
# From the text: as §1
# SW480 = assay: Anti-cancer assay, MTT, LD50; assay type: cell-based; conditions: SW480 colon adenocarcinoma line, 24 hours with peptide
# From the text: as §1
# WI38 = conditions: MTT, 24 hours with peptide; for WI38 LD50: normal fibroblast line; for LD50 WI38: WI38 normal lung fibroblast line
# [6] = LD50 WI38, WI38 normal lung fibroblast line, MTT
Compound,H1299 LD50 (H1299),HeLaS3 LD50 (HeLaS3),PC3 LD50 (PC3),HC50 at 1 h (in vitro [1]) [µg/mL],"CC50 at 24 h (in vitro [2]; WI38 LD50, MTT, normal fibroblast line) [µg/mL]",paerug9027 (MIC) [3],staph6538 (MIC) [4],yeast (MIC or MFC) [5],LD50 BMKC (BMKC),LD50 MCF7 (MCF7),LD50 SW480 (SW480),WI38 LD50 (WI38),CC50 at 24 h (in vitro [2]; [6]) [µg/mL],LD50 WI38 (WI38)
FAKKLAKKLKKLAKKLAK-NH2 [Shiva 10 (1-18) AM],71 µg/mL,190 µg/mL,81 µg/mL,900,101,,,,,,,,,
FAKLLAKLAKKGL-NH2 [P152],410 µg/mL,> (> indicates greater than 1000),> (> indicates greater than 1000),880,,50 µg/mL,100 µg/mL,100 µg/mL,> (> indicates greater than 1000),430 µg/mL,740 µg/mL,620 µg/mL,620,
FAKKLAKKLKKLAKKLIGAVLKV-OH [P99],,,,25,,> (> indicates greater than 200 μg/mL),100 µg/mL,> (> indicates greater than 200 μg/mL),,,,,,
"FALLKL-NH2 [P168, FALLKL-NH2]",> (> indicates greater than 1000),> (> indicates greater than 1000),> (> indicates greater than 1000),600,,100 µg/mL,50 µg/mL,> (> indicates greater than 200 μg/mL),590 µg/mL,630 µg/mL,> (> indicates greater than 1000),> (> indicates greater than 1000),,> (> indicates greater than 1000)
FALALKALKKLKKALKKAL-OH [P28],54 µg/mL,80 µg/mL,16 µg/mL,700,,,,,93 µg/mL,65 µg/mL,59 µg/mL,101 µg/mL,101,
"CC[C@H](C)[C@H](NC(=O)CN)C(=O)NCC(=O)N[C@@H](C)C(=O)N[C@H](C(=O)N[C@@H](CC(C)C)C(=O)N[C@@H](CCCCN)C(=O)N[C@H](C(=O)N[C@@H](CC(C)C)C(=O)N[C@H](C(=O)N[C@H](C(=O)NCC(=O)N[C@@H](CC(C)C)C(=O)N1CCC[C@H]1C(=O)N[C@@H](C)C(=O)N[C@@H](CC(C)C)C(=O)N[C@H](C(=O)N[C@@H](CO)C(=O)N[C@@H](Cc1c[nH]c2ccccc12)C(=O)N[C@H](C(=O)N[C@@H](CCCCN)C(=O)N[C@@H](CCCNC(=N)N)C(=O)N[C@@H](CCCCN)C(=O)N[C@@H](CCCNC(=N)N)C(=O)N[C@@H](CCC(N)=O)C(=O)N[C@@H](CCC(N)=O)C(N)=O)[C@@H](C)CC)[C@@H](C)CC)[C@@H](C)O)[C@@H](C)O)C(C)C)C(C)C [P108, reference compound]",,,,,,> (> indicates greater than 200 μg/mL),5 µg/mL,25 µg/mL,,,,,,
"KWKLFKKIGAVLKVL-NH2 [P53, reference compound]",65 µg/mL,30 µg/mL,40 µg/mL,20,,15 µg/mL,5 µg/mL,50 µg/mL,40 µg/mL,45 µg/mL,,32 µg/mL,32,
"FKVKFKVKVK-NH2 [P303, reference compound]",345 µg/mL,> (> indicates greater than 1000),530 µg/mL,500,,,,,330 µg/mL,315 µg/mL,530 µg/mL,355 µg/mL,355,
KLLKLLLKLYKKLLKLL-OH [P156],,> (> indicates greater than 1000),260 µg/mL,10,,> (> indicates greater than 200 μg/mL),15 µg/mL,> (> indicates greater than 200 μg/mL),520 µg/mL,135 µg/mL,345 µg/mL,230 µg/mL,230,
"FALALKALKKALKKLKKALKKAL-OH [P1, reference compound]",,,,100,,10 µg/mL,5 µg/mL,> (> indicates greater than 200 μg/mL),,,,,,
"ILPWKWPWWPWRR-COOH [P91, reference compound]",64 µg/mL,20 µg/mL,31 µg/mL,,,> (> indicates greater than 200 μg/mL),10 µg/mL,> (> indicates greater than 200 μg/mL),180 µg/mL,12 µg/mL,30 µg/mL,,,
FAFGKGIGKIGKKGL-NH2 [P138],> (> indicates greater than 1000),> (> indicates greater than 1000),> (> indicates greater than 1000),20,,> (> indicates greater than 200 μg/mL),> (> indicates greater than 200 μg/mL),> (> indicates greater than 200 μg/mL),> (> indicates greater than 1000),> (> indicates greater than 1000),> (> indicates greater than 1000),> (> indicates greater than 1000),,> (> indicates greater than 1000)
"FALALKA-NH2 [P141, FALALKA-NH2]",> (> indicates greater than 1000),> (> indicates greater than 1000),,900,,50 µg/mL,15 µg/mL,200 µg/mL,465 µg/mL,430 µg/mL,560 µg/mL,420 µg/mL,420,
